In brackets after ≈: the same amount, converted by molar mass.
Experiments:
S. aureus gyrase = S. aureus gyrase (Staphylococcus aureus, UniProt P0A0K8); test: Gyrase inhibitory assay; format: biochemical
E. coli gyrase = E. coli gyrase (Escherichia coli, UniProt P0AES6); test: Gyrase inhibitory assay; format: biochemical
S. aureus Topo IV = S. aureus Topo IV (Staphylococcus aureus, UniProt P0C1S7); test: Topo IV inhibitory assay; format: biochemical
E. coli Topo IV = E. coli Topo IV (Escherichia coli, UniProt P20083); test: Topo IV inhibitory assay; format: biochemical
S. aureus GyrB24 = S. aureus GyrB24 (Staphylococcus aureus, UniProt P0A0K8); test: Surface plasmon resonance; format: binding
Chain of S. aureus GyrB24 (P0A0K8 2-220): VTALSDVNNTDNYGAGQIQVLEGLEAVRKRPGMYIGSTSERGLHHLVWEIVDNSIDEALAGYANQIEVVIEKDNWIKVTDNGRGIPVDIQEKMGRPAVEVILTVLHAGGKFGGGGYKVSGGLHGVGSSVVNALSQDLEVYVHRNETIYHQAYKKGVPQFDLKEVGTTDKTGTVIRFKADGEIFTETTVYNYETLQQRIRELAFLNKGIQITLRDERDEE

[1] = system: susceptible and resistant Gram-positive bacteria; test: Antibacterial spectrum; format: cell-based, S. aureus, S. epidermidis, E. faecalis, E. faecium; details: read-out: MIC against susceptible and resistant Gram-positive bacteria
[2] = system: methicillin-resistant S. aureus (ATCC43300); test: Mouse model of sepsis induced by MRSA; format: in vivo, ICR mice; details: 10 mg/kg ig, MRSA ATCC43300, observed 7 days
S. aureus (ATCC29213) [3] = test: Spontaneous drug resistance frequency; format: cell-based; details: S. aureus ATCC29213, 4 × MIC
[4] = system: methicillin-resistant S. aureus (ATCC43300); test: Spontaneous drug resistance frequency; format: cell-based; details: MRSA ATCC43300, 4 × MIC
S. aureus (ATCC29213) [5] = test: Time-killing curves / killing kinetic studies; format: cell-based; details: 4, 8, and 16 × MIC
hERG channel = hERG channel (Homo sapiens, UniProt Q12809); test: Inhibition evaluation on hERG K+ channel; format: cell-based
Chain of hERG channel (Q12809 whole entry): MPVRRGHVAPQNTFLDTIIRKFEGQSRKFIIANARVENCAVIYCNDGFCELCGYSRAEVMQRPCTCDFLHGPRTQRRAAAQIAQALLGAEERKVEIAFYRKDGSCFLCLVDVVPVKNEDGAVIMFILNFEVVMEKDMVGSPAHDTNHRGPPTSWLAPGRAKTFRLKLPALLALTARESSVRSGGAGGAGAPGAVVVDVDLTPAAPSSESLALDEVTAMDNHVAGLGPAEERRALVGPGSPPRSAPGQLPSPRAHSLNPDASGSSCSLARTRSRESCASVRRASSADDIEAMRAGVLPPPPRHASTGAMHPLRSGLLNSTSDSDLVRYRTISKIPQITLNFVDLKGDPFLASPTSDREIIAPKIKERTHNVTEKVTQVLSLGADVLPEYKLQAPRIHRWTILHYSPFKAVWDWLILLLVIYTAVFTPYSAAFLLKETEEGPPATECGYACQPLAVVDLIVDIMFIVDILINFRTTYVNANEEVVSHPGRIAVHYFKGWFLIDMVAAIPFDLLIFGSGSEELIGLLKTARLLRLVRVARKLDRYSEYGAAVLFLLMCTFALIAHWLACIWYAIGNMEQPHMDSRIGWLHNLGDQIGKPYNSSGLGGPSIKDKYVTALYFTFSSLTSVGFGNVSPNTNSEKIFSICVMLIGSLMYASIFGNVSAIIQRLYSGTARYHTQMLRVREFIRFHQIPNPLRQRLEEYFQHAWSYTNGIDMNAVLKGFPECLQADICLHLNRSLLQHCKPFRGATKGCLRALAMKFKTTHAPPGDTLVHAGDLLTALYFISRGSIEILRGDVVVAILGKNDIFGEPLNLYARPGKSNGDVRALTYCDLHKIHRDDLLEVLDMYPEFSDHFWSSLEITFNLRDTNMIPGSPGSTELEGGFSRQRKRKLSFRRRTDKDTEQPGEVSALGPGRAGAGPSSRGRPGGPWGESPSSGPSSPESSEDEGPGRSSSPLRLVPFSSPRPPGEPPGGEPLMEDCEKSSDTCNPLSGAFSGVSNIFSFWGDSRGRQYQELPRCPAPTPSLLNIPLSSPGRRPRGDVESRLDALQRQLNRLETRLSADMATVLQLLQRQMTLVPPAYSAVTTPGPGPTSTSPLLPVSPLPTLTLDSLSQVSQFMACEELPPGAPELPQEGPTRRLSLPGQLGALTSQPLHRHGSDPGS

[6] = system: Salmonella typhimurium TA98 and TA100 strains; test: Mini-Ames test; format: cell-based
[7] = Mouse acute toxicity test; set-up: species or system ICR mice; details: both, ICR, in vivo
MRSA (ATCC43300) = test: Neutropenic murine thigh MRSA infection model; format: in vivo, ICR mice; details: 2.5 mg/kg iv, 24 h
[8] = Pharmacokinetics study on beagle dogs; format: in vivo
Cytotoxicity assay [9] = details: human, HK2 renal tubular epithelial cells
Cytotoxicity assay [10] = details: human, LO2 normal hepatocytes
Cytotoxicity assay [11] = details: human, HEK293 embryonic kidney cells
S. aureus ATCC43300 = test: Antibacterial spectrum; details: Staphylococcus aureus
S. aureus MRSA15-1 = test: Antibacterial spectrum; details: Staphylococcus aureus, MRSA151
S. aureus MRSA15-2 = test: Antibacterial spectrum; details: Staphylococcus aureus, MRSA152
S. aureus MSSA15-1 = test: Antibacterial spectrum; details: Staphylococcus aureus, MSSA151
S. aureus MSSA15-2 = test: Antibacterial spectrum; details: Staphylococcus aureus, MSSA152
S. aureus VISA5836 = test: Antibacterial spectrum; details: Staphylococcus aureus
S. aureus VISA5827 = test: Antibacterial spectrum; details: Staphylococcus aureus
S. epidermidis MRSE15-1 = test: Antibacterial spectrum; details: Staphylococcus epidermidis, MRSE151
S. epidermidis MRSE15-2 = test: Antibacterial spectrum; details: Staphylococcus epidermidis, MRSE152
S. epidermidis MSSE15-3 = test: Antibacterial spectrum; details: Staphylococcus epidermidis, MSSE153
E. faecalis ATCC51575 = test: Antibacterial spectrum; details: Enterococcus faecalis
E. faecalis ATCC51299 = test: Antibacterial spectrum; details: Enterococcus faecalis
E. faecium EFM19-1 = test: Antibacterial spectrum; details: Enterococcus faecium, EFM191
P. aeruginosa ATCC27853 = test: Antibacterial spectrum; details: Pseudomonas aeruginosa
A. baumannii ATCC19606 = test: Antibacterial spectrum; details: Acinetobacter baumannii
S. aureus (ATCC29213) [12] = test: Antibacterial assay; details: Staphylococcus aureus, ATCC29213, read-out: MIC S. aureus (ATCC29213)
E. coli (ATCC25922) = test: Antibacterial assay; details: Escherichia coli, ATCC25922, read-out: MIC E. coli (ATCC25922)
HepG2 cells = test: Mitochondrial toxicity; details: HepG2 cells, 50–800 μmol/L
[13] = both, beagle, dog, plasma, iv, 1 mg/kg
[14] = both, beagle, dog, plasma, po, 1 mg/kg

Chain of S. aureus Topo IV (P0C1S7 whole entry): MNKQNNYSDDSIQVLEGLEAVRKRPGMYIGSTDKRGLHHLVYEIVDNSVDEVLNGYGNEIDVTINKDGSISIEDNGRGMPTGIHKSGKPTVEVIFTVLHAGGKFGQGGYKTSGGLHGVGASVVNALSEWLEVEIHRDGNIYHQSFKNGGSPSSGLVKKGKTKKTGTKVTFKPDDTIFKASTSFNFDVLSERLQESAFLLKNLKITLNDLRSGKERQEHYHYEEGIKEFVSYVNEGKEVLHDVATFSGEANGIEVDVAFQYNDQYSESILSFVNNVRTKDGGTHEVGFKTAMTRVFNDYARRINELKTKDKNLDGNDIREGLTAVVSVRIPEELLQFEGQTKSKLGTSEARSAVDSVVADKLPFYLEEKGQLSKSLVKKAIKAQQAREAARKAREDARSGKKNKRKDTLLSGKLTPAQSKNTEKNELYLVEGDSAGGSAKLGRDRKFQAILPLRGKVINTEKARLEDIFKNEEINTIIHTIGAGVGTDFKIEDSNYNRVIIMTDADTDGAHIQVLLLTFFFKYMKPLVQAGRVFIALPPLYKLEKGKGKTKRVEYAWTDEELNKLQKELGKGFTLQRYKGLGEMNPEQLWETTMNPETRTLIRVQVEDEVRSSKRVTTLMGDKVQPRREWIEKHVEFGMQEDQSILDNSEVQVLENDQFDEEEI
Chain of S. aureus Topo IV (P0C1U9 whole entry partner): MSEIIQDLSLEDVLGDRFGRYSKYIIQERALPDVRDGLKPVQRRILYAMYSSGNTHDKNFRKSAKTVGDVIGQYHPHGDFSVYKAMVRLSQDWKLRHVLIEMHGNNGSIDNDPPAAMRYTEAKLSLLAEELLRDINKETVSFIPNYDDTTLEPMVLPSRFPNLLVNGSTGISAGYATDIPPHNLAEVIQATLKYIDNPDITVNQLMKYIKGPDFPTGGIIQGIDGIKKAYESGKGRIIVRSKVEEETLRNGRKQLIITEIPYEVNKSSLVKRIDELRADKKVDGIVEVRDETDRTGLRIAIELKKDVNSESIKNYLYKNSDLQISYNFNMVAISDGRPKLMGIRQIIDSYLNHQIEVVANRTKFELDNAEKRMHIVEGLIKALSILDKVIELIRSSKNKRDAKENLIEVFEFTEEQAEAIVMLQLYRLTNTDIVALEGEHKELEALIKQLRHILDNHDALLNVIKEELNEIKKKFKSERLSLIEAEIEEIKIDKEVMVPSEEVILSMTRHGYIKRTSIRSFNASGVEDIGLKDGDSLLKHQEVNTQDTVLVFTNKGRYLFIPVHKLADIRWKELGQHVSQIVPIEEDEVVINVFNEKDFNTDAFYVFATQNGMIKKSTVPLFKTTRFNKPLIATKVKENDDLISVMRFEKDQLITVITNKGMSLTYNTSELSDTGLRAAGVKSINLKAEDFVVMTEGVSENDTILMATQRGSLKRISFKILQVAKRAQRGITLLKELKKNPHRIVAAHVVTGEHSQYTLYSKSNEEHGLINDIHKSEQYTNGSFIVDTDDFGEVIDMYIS
Chain of S. aureus gyrase (P0A0K8 whole entry): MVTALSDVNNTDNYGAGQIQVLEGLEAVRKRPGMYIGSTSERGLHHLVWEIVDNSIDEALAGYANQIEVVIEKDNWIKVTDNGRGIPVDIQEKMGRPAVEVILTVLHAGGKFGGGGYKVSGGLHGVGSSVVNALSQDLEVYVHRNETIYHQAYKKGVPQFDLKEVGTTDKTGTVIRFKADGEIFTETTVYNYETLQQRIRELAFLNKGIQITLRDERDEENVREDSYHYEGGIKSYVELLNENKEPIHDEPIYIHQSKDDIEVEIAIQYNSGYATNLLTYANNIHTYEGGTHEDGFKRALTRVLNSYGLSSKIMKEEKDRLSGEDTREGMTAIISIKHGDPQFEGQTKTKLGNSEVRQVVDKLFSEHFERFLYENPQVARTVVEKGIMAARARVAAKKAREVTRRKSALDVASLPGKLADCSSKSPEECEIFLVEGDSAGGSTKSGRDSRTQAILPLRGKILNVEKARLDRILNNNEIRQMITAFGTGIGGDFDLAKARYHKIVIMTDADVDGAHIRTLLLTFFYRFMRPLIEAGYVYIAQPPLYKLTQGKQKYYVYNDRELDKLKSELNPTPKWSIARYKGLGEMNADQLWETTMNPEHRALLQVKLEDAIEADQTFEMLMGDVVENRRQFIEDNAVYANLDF
Chain of S. aureus gyrase (P20831 whole entry partner): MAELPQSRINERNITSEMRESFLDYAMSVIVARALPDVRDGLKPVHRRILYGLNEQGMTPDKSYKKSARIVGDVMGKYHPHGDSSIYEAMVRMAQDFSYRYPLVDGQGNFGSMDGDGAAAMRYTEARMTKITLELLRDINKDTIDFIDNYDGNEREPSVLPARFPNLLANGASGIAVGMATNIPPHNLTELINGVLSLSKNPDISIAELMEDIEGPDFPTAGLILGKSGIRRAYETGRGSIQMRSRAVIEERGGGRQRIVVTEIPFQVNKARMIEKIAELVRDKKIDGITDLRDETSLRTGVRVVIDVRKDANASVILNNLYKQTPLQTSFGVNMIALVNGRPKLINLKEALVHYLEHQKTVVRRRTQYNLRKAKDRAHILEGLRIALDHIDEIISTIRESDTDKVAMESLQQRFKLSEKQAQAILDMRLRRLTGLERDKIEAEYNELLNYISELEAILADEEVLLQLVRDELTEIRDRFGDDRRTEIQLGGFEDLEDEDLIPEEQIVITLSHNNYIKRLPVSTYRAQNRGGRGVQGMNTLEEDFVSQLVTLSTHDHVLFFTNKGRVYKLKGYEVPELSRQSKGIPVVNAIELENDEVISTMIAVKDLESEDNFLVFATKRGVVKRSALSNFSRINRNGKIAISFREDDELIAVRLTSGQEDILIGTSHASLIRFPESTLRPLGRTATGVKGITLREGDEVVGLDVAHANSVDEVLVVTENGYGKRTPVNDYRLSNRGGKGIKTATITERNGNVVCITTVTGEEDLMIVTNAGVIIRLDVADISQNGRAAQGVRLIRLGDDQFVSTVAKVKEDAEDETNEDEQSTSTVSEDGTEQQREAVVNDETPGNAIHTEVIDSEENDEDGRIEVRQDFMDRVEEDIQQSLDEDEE

In the case of CO[C@H]1CN(c2ccc(C(C)(C)O)nn2)CC[C@H]1NC(=O)c1[nH]c(C)c(Cl)c1Cl [Compound 28, 3,4-Dichloro-N-((3S,4R)-1-(6-(2-hydroxypropan-2-yl)pyridazin-3-yl)-3-methoxypiperidin-4-yl)-5-methyl-1H-pyrrole-2-carboxamide], the IC50 (S. aureus gyrase) is reported as 49 ± 5 nM, the IC50 (E. coli gyrase) is reported as 1480 ± 441 nM and the IC50 (S. aureus Topo IV) is reported as 1510 ± 460 nM. For the same compound, the IC50 (E. coli Topo IV) was greater than 10000 nM, the Kd (S. aureus GyrB24) was 52 nM and the MIC [1] was less than 0.03 µg/mL. The “protective effect / survival in mouse model of sepsis” value [2] was “survived”, the spontaneous resistance frequency (S. aureus (ATCC29213) [3]) was “less than 8 × 10^–12” and the spontaneous resistance frequency [4] was < 4.3 × 10^–12. The “time-kill curve” value (S. aureus (ATCC29213) [5]) was “time-dependent bactericidal effect”, the IC50 (hERG channel) was greater than 30000 nM and the “mutagenic effects in Mini-Ames test” value [6] was “did not show any mutagenic effects”. The LD50 at 7 days ([7]; ip) was greater than 300 mg/kg, the LD50 at 7 days ([7]; iv) was greater than 100 mg/kg and the LD50 at 7 days ([7]; po) was greater than 800 mg/kg. For the same compound, the “reduction of colony-forming unit (CFU) in the thigh” value (MRSA (ATCC43300)) was 3–4 log10, the Cmax [8, 13] was 5510 ng/mL and the MRT inf [8, 13] was 12.3 h. The MRT last [8, 13] was 9.79 h, the Tmax [8, 13] was 0.873 h and the clearance [8, 13] was 0.33 mL/min/kg. For the same compound, the half-life [8, 13] was 11.3 h, the Cmax [8, 14] was 3750 ng/mL and the MRT inf [8, 14] was 9.85 h. It also gave an MRT last [8, 14] of 9.07 h, a Tmax [8, 14] of 1.75 h and a bioavailability [8, 14] of 66.8%. The half-life [8, 14] was 8.53 h, the “AUC0–48” value ([8]; iv (1 mg/kg)) was 56,432.101 μg·h and the “AUC0–∞” value ([8]; iv (1 mg/kg)) was 58,890.621 μg·h. For the same compound, the “AUC0–48” value ([8]; po (1 mg/kg)) was 38,552.203 μg·h, the “AUC0–∞” value ([8]; po (1 mg/kg)) was 39,362.651 μg·h and the IC50 at 48 h (Cytotoxicity assay [9]) was greater than 10000 nM. The IC50 at 48 h (Cytotoxicity assay [10]) was greater than 10000 nM, the IC50 at 48 h (Cytotoxicity assay [11]) was greater than 10000 nM and the MIC (S. aureus ATCC43300) was 0.015 µg/mL (≈ 0.0339 µM). It also gave an MIC (S. aureus MRSA15-1) of 0.015 µg/mL (≈ 0.0339 µM), an MIC (S. aureus MRSA15-2) of 0.015 µg/mL (≈ 0.0339 µM) and an MIC (S. aureus MSSA15-1) of 0.015 µg/mL (≈ 0.0339 µM). It also gave an MIC (S. aureus MSSA15-2) of 0.015 µg/mL (≈ 0.0339 µM), an MIC (S. aureus VISA5836) of 0.015 µg/mL (≈ 0.0339 µM) and an MIC (S. aureus VISA5827) of 0.015 µg/mL (≈ 0.0339 µM). For the same compound, the MIC (S. epidermidis MRSE15-1) was 0.015 µg/mL (≈ 0.0339 µM), the MIC (S. epidermidis MRSE15-2) was 0.015 µg/mL (≈ 0.0339 µM) and the MIC (S. epidermidis MSSE15-3) was 0.015 µg/mL (≈ 0.0339 µM). For the same compound, the MIC (E. faecalis ATCC51575) was 0.03 µg/mL (≈ 0.0678 µM), the MIC (E. faecalis ATCC51299) was 0.015 µg/mL (≈ 0.0339 µM) and the MIC (E. faecium EFM19-1) was 0.015 µg/mL (≈ 0.0339 µM). It also gave an MIC (P. aeruginosa ATCC27853) of 4 µg/mL (≈ 9.04 µM), an MIC (A. baumannii ATCC19606) of 8 µg/mL (≈ 18.1 µM) and an MIC (S. aureus (ATCC29213) [12]) of no more than 0.015 µg/mL. For the same compound, the MIC (E. coli (ATCC25922)) was 1 µg/mL (≈ 2.26 µM) and the “mitochondrial toxicity” value (HepG2 cells) was “much less toxicity”.

Source: PMC10692473 (Acta Pharmaceutica Sinica. B, 2023)
